Laboratory results as given in publication PMC2690590, “Functional recombinant MHC class II molecules and high-throughput peptide-binding assays” (Immunome Research, 2009).
Where no end group is shown, it is not given here.

How the values were obtained:
DR4 (DRA*0101/DRB1*0401) = target: T1, DR4 (DRA*0101/DRB1*0401) (Homo sapiens, UniProt P01903+P01911, A100K/A169T/F76Y/I96L/K127E/L162R/M171V/N62H/P40V/Q125Y/R42H/S133A/S149N/S66Y/V115G/V209L/W38E); test: Direct LOCI peptide-MHC-II binding assay, DR4
T1 construct: DRA*01011-181LZFos; DRB1*04011-190LZJunBSP; made in house

[1] = target: T2, DRB1*0813 (DRA*0101/DRB1*0813) (Homo sapiens, UniProt P01903+P01911, A100R/A103L/A169T/F76Y/H45Y/I96L/K41T/L162R/M171V/P40S/Q125H/Q178H/Q39Y/Q99D/R218S/R42G/S66Y/V115G/W38E); test: Direct LOCI peptide-MHC-II binding assay, DRB1*0813
T2 construct: DRA*01011-181LZFos; DRB1*08131-190LZJunBSP; made in house

[2] = target: DP401 (DPA1*0103/DPB1*0401) (Homo sapiens, UniProt P04440+P20036); test: Direct LOCI peptide-MHC-II binding assay, DP401
Sequence of DP401 (DPA1*0103/DPB1*0401) (P20036 with tags, fused parts or gaps C154S): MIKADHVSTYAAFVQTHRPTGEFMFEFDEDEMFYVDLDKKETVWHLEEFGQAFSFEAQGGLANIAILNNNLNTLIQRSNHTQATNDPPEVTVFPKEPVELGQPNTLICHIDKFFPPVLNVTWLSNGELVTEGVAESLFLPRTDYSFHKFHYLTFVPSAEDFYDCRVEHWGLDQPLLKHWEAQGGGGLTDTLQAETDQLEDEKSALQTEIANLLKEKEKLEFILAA
Sequence of DP401 (DPA1*0103/DPB1*0401) (as listed by the source): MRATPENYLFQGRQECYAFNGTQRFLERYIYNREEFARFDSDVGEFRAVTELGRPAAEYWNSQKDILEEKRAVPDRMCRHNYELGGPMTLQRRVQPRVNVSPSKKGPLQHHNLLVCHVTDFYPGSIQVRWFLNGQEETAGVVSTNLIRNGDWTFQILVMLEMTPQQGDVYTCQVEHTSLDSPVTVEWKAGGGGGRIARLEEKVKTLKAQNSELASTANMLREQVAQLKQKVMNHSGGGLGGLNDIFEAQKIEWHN

DR3 (DRA*0101/DRB1*0301) = target: T3, DR3 (DRA*0101/DRB1*0301) (Homo sapiens, UniProt P01903+P01911, A100K/A102G/A103R/A169T/F55Y/I96L/K41T/L162R/M171V/P40S/Q125H/Q178H/Q39Y/R42S/S66N/T106N/T262R/W38E/Y61H); test: Direct LOCI peptide-MHC-II binding assay, DR3
T3 construct: DRA*01011-181LZFos; DRB1*03011-190LZJunBSP; made in house

[3] = target: T4, DRB3*0301 (DRA*0101/DRB3*0301) (Homo sapiens, UniProt P01903+P79483, A169T/A212P/D57E/G115V/L67V/Q178H/R103Q/R40L/Y55F); test: Direct LOCI peptide-MHC-II binding assay, DRB3*0301
T4 construct: DRA*01011-181LZFos; DRB3*03011-190LZJunBSP; made in house

| Compound | Kd (DR4 (DRA*0101/DRB1*0401)) [µM] | Kd [1] [µM] | Kd [2] [µM] | Kd (DR3 (DRA*0101/DRB1*0301)) [µM] | Kd [3] [µM] |
| --- | --- | --- | --- | --- | --- |
| CSCC[C@H](NC(=O)[C@@H](N)Cc1ccccc1)C(=O)N[C@@H](CO)C(=O)N[C@@H](CCCNC(=N)N)C(=O)N[C@@H](CCCCN)C(=O)N[C@@H](CC(C)C)C(=O)N[C@@H](Cc1c[nH]cn1)C(=O)N[C@@H](CCCNC(=N)N)C(=O)N[C@@H](Cc1ccc(O)cc1)C(=O)O [Hantaan] | > 5 | 0.021 | > 5 | 0.279 | – |
| WMARRHAER [Brucella] | > 5 | – | > 5 | > 5 | > 5 |
